Columns and labels:
[1] = tested on: SUP-M2 cells; test: Cell proliferation assay, SUP-M2 cells (CCK-8); format: cell-based; details: 72 h exposure, Cell Counting Kit-8 assay
Protocol: (§1) NCI-H3122 or SUP-M2 Cells were plated into 96-well plates (3000-8000/well) in complete medium. After incubation overnight, cells were exposed to various concentrations of compound for further 72 h. Cell proliferation was evaluated by SRB assay (for NCI-H3122 cell) or Cell Counting Kit-8 assay (CCK-8, DOJINDO Molecular Technologies, Inc.) (for SUP-M2 cell). ICso values were calculated by concentration-response curve fitting using a SoftMax pro-based four-parameter method. Each IC50 value was expressed as mean±SD from three separate experiments.

[2] = tested on: NCI-H3122 cells; test: Cell proliferation assay, NCI-H3122 cells (SRB); format: cell-based; details: Homo sapiens, 72 h exposure
Protocol: as §1

Compound	IC50 [1] [nM]	IC50 [2] [nM]
Cc1cc(Nc2ncnc(Nc3ccccc3S(=O)(=O)C(C)C)n2)c2c(c1C1CCNCC1)C[C@@H](C)O2 [Example 1, (R)—N^2-(2,5-dimethyl-4-(piperidin-4-yl)-2,3-dihydrobenzofuran-7-yl)-N^4-(2-(isopropylsulfonyl)phenyl)-1,3,5-triazine-2,4-diamine]	99.3	52.6
Cc1cc(Nc2ncnc(Nc3ccccc3S(=O)(=O)C(C)C)n2)c2c(c1C1CCN(C)CC1)C[C@@H](C)O2 [Example 2, (R)—N^2-(2,5-dimethyl-4-(1-methylpiperidin-4-yl)-2,3-dihydrobenzofuran-7-yl)-N^4-(2-(isopropyl-sulfonyl)phenyl)-1,3,5-triazine-2,4-diamine]	54.4	20.8
CC(=O)N1CCC(c2c(C)cc(Nc3ncnc(Nc4ccccc4S(=O)(=O)C(C)C)n3)c3c2C[C@@H](C)O3)CC1 [Example 3, (R)-1-(4-(7-((4-((2-(isopropylsulfonyl)phenyl)amino)-1,3,5-triazin-2-yl)amino)-2,5-dimethyl-2,3-dihydrobenzofuran-4-yl)piperidin-1-yl)ethan-1-one]	50.4	14.4
Cc1cc(Nc2ncnc(Nc3ccccc3S(=O)(=O)C(C)C)n2)c2c(c1C1CCN(S(C)(=O)=O)CC1)C[C@@H](C)O2 [Example 4, (R)—N^2-(2,5-dimethyl-4-(1-(methylsulfonyl)piperidin-4-yl)-2,3-dihydrobenzofuran-7-yl)-N^4-(2-(isopropylsulfonyl)phenyl)-1,3,5-triazine-2,4-diamine]	111 to 333	
Cc1cc(Nc2ncnc(Nc3ccccc3S(=O)(=O)C(C)C)n2)c2c(c1C1CCN(CCO)CC1)C[C@@H](C)O2 [Example 5, (R)-2-(4-(7-((4-((2-(isopropylsulfonyl)phenyl)amino)-1,3,5-triazin-2-yl)amino)-2,5-dimethyl-2,3-dihydrobenzofuran-4-yl)piperidin-1-yl)ethan-1-ol]	70	57.7
CCOC(=O)CN1CCC(c2c(C)cc(Nc3ncnc(Nc4ccccc4S(=O)(=O)C(C)C)n3)c3c2C[C@@H](C)O3)CC1 [Example 6, Ethyl (R)-2-(4-(7-((4-((2-(isopropylsulfonyl)phenyl)amino)-1,3,5-triazin-2-yl)amino)-2,5-dimethyl-2,3-dihydrobenzofuran-4-yl)piperidin-1-yl)acetate]	111 to 333	
Cc1cc(Nc2ncnc(Nc3ccccc3S(=O)(=O)C(C)C)n2)c2c(c1C1CCN(CC(=O)N(C)C)CC1)C[C@@H](C)O2 [Example 7, (R)-2-(4-(7-((4-((2-(isopropylsulfonyl)phenyl)amino)-1,3,5-triazin-2-yl)amino)-2,5-dimethyl-2,3-dihydrobenzofuran-4-yl)piperidin-1-yl)-N,N-dimethylacetamide]	111 to 333	
Cc1cc(Nc2ncnc(Nc3ccccc3S(=O)(=O)C(C)C)n2)c2c(c1C1CCN(CCS(C)(=O)=O)CC1)C[C@@H](C)O2 [Example 8, (R)—N^2-(2,5-dimethyl-4-(1-(2-(methylsulfonyl)ethyl)piperidin-4-yl)-2,3-dihydrobenzofuran-7-yl)-N^4-(2-(isopropylsulfonyl)phenyl)-1,3,5-triazine-2,4-diamine]	111 to 333	
Cc1cc(Nc2ncnc(Nc3ccccc3S(=O)(=O)C(C)C)n2)c2c(c1C1CCN(C(=O)CO)CC1)C[C@@H](C)O2 [Example 9, (R)-2-hydroxy-1-(4-(7-((4-((2-(isopropylsulfonyl)phenyl)amino)-1,3,5-triazin-2-yl)amino)-2,5-dimethyl-2,3-dihydrobenzofuran-4-yl)piperidin-1-yl)ethan-1-one]	33.7	15.9
Cc1cc(Nc2ncnc(Nc3ccccc3S(=O)(=O)C(C)C)n2)c2c(c1C1CCN(C(=O)CN)CC1)C[C@@H](C)O2 [Example 10, (R)-2-amino-1-(4-(7-((4-((2-(isopropylsulfonyl)phenyl)amino)-1,3,5-triazin-2-yl)amino)-2,5-dimethyl-2,3-dihydrobenzofuran-4-yl)piperidin-1-yl)ethan-1-one]	79.6	134
Cc1cc(Nc2ncnc(Nc3ccccc3S(=O)(=O)C(C)C)n2)c2c(c1C1CCN(C(=O)[C@H](C)N)CC1)C[C@@H](C)O2 [Example 11, (S)-2-amino-1-(4-((R)-7-((4-((2-(isopropylsulfonyl)phenyl)amino)-1,3,5-triazin-2-yl)amino)-2,5-dimethyl-2,3-dihydrobenzofuran-4-yl)piperidin-1-yl)propan-1-one]	67.1	25.7
